Assay results published in patent US20080008745A1, “Transdermal delivery of naltrexone hydrochloride, naltrexol hydrochloride, and bis(hydroxy-methyl)propionyl-3-0 ester naltrexone using microneedles” (UNIVERSITY OF KENTUCKY RESEARCH FOUNDATION, priority 2006, published 2008).
Values after ≈ are worked out from the molar mass of the structure shown. Structures can show the parent of a compound that is named as a salt. Where two headings read alike, the source gives them in different places.

How the values were obtained:
[1] = Solubility in 3:1 PG:Hanks' buffer; type: physicochemical; conditions: for Solubility in 3:1 PG:Hanks Buffer: 32° C., 24 h
Description: An excess of Naltrexone HCl (˜350 mg) was added to 1 mL of 3:1 PG:Hanks' buffer. The saturated solution was then vortexed for 1 min, sonicated for 15 min, and placed in an incubator at 32° C. for 24 h while shaking on a belly shaker. Just before filtering, a glass syringe and 0.45 μm filter were heated in an incubator to 32° C. The solution was filtered and diluted with ACN for high pressure liquid chromatography (HPLC) analysis.

[2] = In vitro skin diffusion study, flow-through diffusion cell, human skin; type: in vitro ADME; conditions: for Papp at 48 h: human; for Lag time / NTX Flux: Human skin
[3] = In vitro skin diffusion study, flow-through diffusion cell, guinea pig skin
Description: Hairless guinea pig skin was harvested from euthanitized animals. Animal studies were approved by the University of Kentucky IACUC. Human skin harvested during abdominoplasty was used for the diffusion studies. Human tissue use was approved by the University of Kentucky Institutional Review Board. Skin sections were obtained by removing the subcutaneous fatty tissue by scalpel dissection and stored at −20° C. A PermeGear flow-through (In-Line, Riegelsville, Pa.) diffusion cell system was used for the skin permeation studies. Skin used for microneedle treatment was placed on a wafer of polydimethylsiloxane polymer, which mimicked the underlying resistance of tissue. The skin was poked 20 times with an array containing 5 MN before mounting the skin in the diffusion cell. Untreated skin samples were simply placed in the diffusion cells. Diffusion cells were kept at 32° C. with a circulating water bath. Data was collected by using skin from a single donor with three cells for untreated formulations and three to four cells for the MN treated formulations. The receiver solution was HEPES-buffered Hanks' balanced salts with gentamicin at pH 7.4, and the flow rate was adjusted to 1.1 mL/h. Each cell was charged with 0.25 mL of the respective drug solution. […] All samples were stored at 4° C. until processed by solid phase extraction.
The cumulative quantity of drug collected in the receiver compartment was plotted as a function of time. The flux value for a given experiment was obtained from the slope of the steady state portion of the cumulative amount of drug permeated, plotted over time. Apparent permeability coefficient values were calculated from Fick's First Law of diffusion: [formula]
Sink conditions were maintained in the receiver solution for the duration of the experiment, so ΔC was approximated by the drug concentration in the donor compartment.
The HPLC analysis was performed as described by Vaddi et al., Pharm. Res. 22 (2005) 758-765. The HPLC system consisted of a Waters 717plus autosampler, a Waters 1525 Binary HPLC pump, and a Waters 2487 Dual λ Absorbance detector with Waters Breeze software. A Brownlee C-18 reversed-phase Spheri-5 μm column (220×4.6 mm) with a C-18 reversed phase 7 μm guard column (15×3.2 mm) was used with the UV detector set at a wavelength of 215 nm. […] The mobile phase for Naltrexol consisted of 90:10 ACN:0.1% TFA adjusted to pH 3.0 with TEA. Samples were run for 10 min at 1 mL/min as described by Paudel et al., J. Pharm. Sci. 94 (2005) 1965-1975). One hundred microliters of sample was injected onto the column for both Naltrexone and Naltrexol. Samples were analyzed within the linear range of the standard curves.
The drugs were extracted from the buffer samples by solid phase extraction (30mg 1 cc Oasis® HLB, Waters Corp., Milford, Mass.) as described by Vaddi et al., Pharm. Res. 22 (2005) 758-765.
Before extracting the aqueous drug samples (5 mL), the cartridge was conditioned with 1 mL of methanol and 1 mL of nanopure water. After sample loading, the cartridge was washed with 1 mL of 5% methanol and the drug was eluted with ACN and analyzed by HPLC. A similar extraction method was employed for Naltrexol, except 2 mL of methanol was used in conditioning and 1 mL of nanopure water was also used to further wash the samples after being loaded onto the cartridge. The Naltrexol was eluted with 2 mL of isopropanol and finally with 1 mL ACN. Naltrexol samples were evaporated under nitrogen in a water bath maintained at 37° C. The samples were then reconstituted with 1 mL of ACN for HPLC analysis. Highly concentrated samples of Naltrexone and Naltrexol were further diluted 10 times in ACN.
The data obtained from the diffusion experiments were plotted as the cumulative amount of drug collected in the receiver compartment as a function of time.

[4] = human skin, passive diffusion without MN (Paudel et al.); cited from earlier work
[5] = Solubility or concentration of Naltrexol base in 3:1 H2O:PG after pH adjustment; type: physicochemical; conditions: for Concentration in 3:1 H2O:PG: concentration of drug in solution, freely soluble in the ionized form; for Solubility in 3:1 H2O:PG: pH adjusted
Description: 100 mg of Naltrexol base was prepared in 3:1 H2O:PG. The solution was briefly vortexed and sonicated for 10 min. To obtain a mixture of pH 8.5 Naltrexol base, 0.5 N sodium hydroxide was added incrementally. The same procedure was performed to obtain a pH 4.5 solution, except 0.5 M HCl was added dropwise. […] The solution was saturated with excess solid when the pH was raised above the first pKa (7.4) of Naltrexol base.

[6] = In vivo pharmacokinetics in hairless guinea pigs, gel with or without microneedles; design: species or system hairless guinea pig
Description: In vivo studies of hairless guinea pigs were performed in order to obtain pharmacokinetic parameters for guinea pigs treated with 26 mg Naltrexol base gel, MN application followed by 26 mg Naltrexol base gel, 285 mg Naltrexol HCl gel and MN application followed by 285 mg Naltrexol HCl. The base was saturated in gel whereas the hydrochloride salt remained soluble in solution.

[7] = cited from earlier work
[8] = No MN GP skin, listed as Naltrexone base
[9] = MN Treated GP skin, 100 mg/ml Naltrexone base equivalent in 3:1 PG:water, 48 hours
[10] = GP skin, MN Treated, High Dose, listed as Naltrexol pH 4.5
[11] = GP skin, No MN, High Dose, 3:1 H2O:PG
[12] = MN application followed by gel (26 mg base or 285 mg HCl)
[13] = no MN, gel (26 mg Naltrexol base or 285 mg Naltrexol HCl)

O=C1CC[C@@]2(O)[C@H]3Cc4ccc(O)c5c4[C@@]2(CCN3CC2CC2)[C@H]1O5 [NTX Base, Naltrexone]
solubility at 24 h ([1]; 3:1 PG:Hanks' buffer, 32 °C, aqueous with cosolvent or surfactant or cyclodextrin, thermodynamic from solid, Eq. 2, read-out: Solubility S used for theoretical dosing): 300 mg/mL (≈ 879 mM)
Solubility in 3:1 PG:Hanks Buffer ([1]; listed as Naltrexone base): 43.6 mM (≈ 14900 µg/mL)
Maximum daily dose ([2]; 10 cm^2 patch, passive diffusion without MN, at solubility limit): 0.4 mg
Papp at 48 h ([2]; pH 7.4, microneedle-treated human skin, read-out: Permeability Kp (estimated) (converted)): 0.0194 ×10⁻⁶ cm/s
Lag time ([3]; MN GP skin): 18.91 ± 4.49 h
NTX Flux ([3]; MN GP skin, 3:1 PG:Hanks' buffer): 11.80 ± 5.02 nmol/cm^2/h
NTX Flux ([3]; MN GP skin, 3:1 PG:Hanks' buffer, listed as Naltrexone base): 11.80±5.02 nmol/cm^2/h
Lag time ([3]; MN GP skin, listed as Naltrexone base): 18.91 ± 4.49 h
Lag time ([3]; No MN GP skin): 21.22 ± 3.91 h
NTX Flux ([3]; No MN GP skin): 9.94 ± 2.75 nmol/cm^2/h
Lag time [3, 8]: 21.22 ± 3.91 h
NTX Flux [3, 8]: 9.94±2.75 nmol/cm^2/h
Permeability [4]: 0.03 ×10⁻⁶ cm/s

CC(CO)(CO)C(=O)Oc1ccc2c3c1OC1C(=O)CCC4(O)C(C2)N(CC2CC2)CCC314 (centres unmarked) [NTX-Diol ester, bis(hydroxymethyl)propionyl-3-O-ester naltrexone]
Flux [3, 9]: 71.98 ± 26.38 nmol/cm^2/h
Lag time [3, 9]: 10.33 ± 7.95 h
Flux level relative to Naltrexone HCl with MN treatment ([3]; MN treated GP skin): approximately twice

O=C1CC[C@@]2(O)[C@H]3Cc4ccc(O)c5c4[C@@]2(CCN3CC2CC2)[C@H]1O5 [NTX-HCl, Naltrexone Hydrochloride]
Solubility in 3:1 PG:Hanks Buffer ([1]; Hydrochloride): 794.4 mM
Maximum daily dose (calculated from Eq. 2) ([2]; 10 cm^2 patch, MN-treated human skin, highest concentration measured): 5.0 mg
Lag time ([2]; MN): 12.06 ± 4.32 h
NTX Flux ([2]; MN): 18.54 ± 4.38 nmol/cm^2/h
Lag time ([2]; No MN): 23.66 ± 2.74 h
NTX Flux ([2]; No MN): 2.22 ± 0.72 nmol/cm^2/h
Flux enhancement by MN treatment ([2]; human skin, MN vs untreated, p<0.05): 8 fold
Papp at 48 h ([2]; pH 7.4, Human skin, MN, read-out: Permeability (converted)): 0.0194 ×10⁻⁶ cm/s
Papp at 48 h ([2]; pH 7.4, Human skin, No MN, read-out: Permeability (converted)): 0.00233 ×10⁻⁶ cm/s
Permeability Kp (estimated) ([2]; microneedle-treated human skin): 0.0194 ×10⁻⁶ cm/s
Flux enhancement by MN treatment ([3]; GP skin, MN vs untreated): 10 fold
NTX Flux ([3]; MN GP skin, 3:1 PG:Hanks' buffer, Hydrochloride): 27.16 ± 4.57 nmol/cm^2/h
NTX Flux ([3]; MN GP skin, 3:1 PG:Hanks' buffer, listed as Naltrexone HCl, Hydrochloride): 27.16±4.57 nmol/cm^2/h
Lag time ([3]; MN GP skin, Hydrochloride): 2.41 ± 3.85 h
Lag time ([3]; MN GP skin, listed as Naltrexone HCl, Hydrochloride): 2.41 ± 3.85 h
Lag time ([3]; No MN GP skin, Hydrochloride): 22.38 ± 7.68 h
NTX Flux ([3]; No MN GP skin, Hydrochloride): 2.71 ± 1.20 nmol/cm^2/h
Lag time ([3]; No MN GP skin, listed as Naltrexone HCl, Hydrochloride): 22.38 ± 7.68 h

Oc1ccc2c3c1O[C@H]1[C@H](O)CC[C@@]4(O)[C@@H](C2)N(CC2CC2)CC[C@]314 [NTXOL Base pH 4.5, 6-β-Naltrexol]
Concentration in 3:1 H2O:PG ([5]; High Dose): **292.40 mM
Concentration in 3:1 H2O:PG ([5]; Low Dose): **76.02 mM
Lag time ([3]; GP skin, MN Treated, High Dose): 6.58 ± 5.02 h
NTXOL Flux ([3]; GP skin, MN Treated, High Dose): 35.07 ± 8.18 nmol/cm^2/h
Lag time [3, 10]: 6.58 ± 5.02 h
NTXOL Flux [3, 10]: 35.07±8.18 nmol/cm^2/h
Lag time ([3]; GP skin, MN Treated, Low Dose): 10.33 ± 7.95 h
NTXOL Flux ([3]; GP skin, MN Treated, Low Dose): 71.98 ± 26.38 nmol/cm^2/h
Lag time ([3]; GP skin, No MN, High Dose): 25.97 ± 5.50 h
NTXOL Flux [3, 11]: 6.56 ± 6.49 nmol/cm^2/h
Lag time ([3]; GP skin, No MN, High Dose, listed as Naltrexol pH 4.5): 25.97 ± 5.50 h
Lag time ([3]; GP skin, No MN, Low Dose): 27.18 ± 1.31 h
NTXOL Flux ([3]; GP skin, No MN, Low Dose): 11.50 ± 4.20 nmol/cm^2/h
Flux enhancement relative to Naltrexone HCl ([3]; MN treated GP skin): 1.3 fold

Oc1ccc2c3c1O[C@H]1[C@H](O)CC[C@@]4(O)[C@@H](C2)N(CC2CC2)CC[C@]314 [NTXOL Base pH 8.5, 6-β-Naltrexol]
Solubility in 3:1 H2O:PG [5]: 2.69 mM (≈ 924 µg/mL)
Solubility in 3:1 H2O:PG ([5]; listed as Naltrexol base at pH 8.5): 2.92 mM (≈ 1000 µg/mL)
Lag time ([3]; GP skin, MN Treated, High Dose): 17.53 ± 6.56 h
NTXOL Flux ([3]; GP skin, MN Treated, High Dose): 4.79 ± 2.62 nmol/cm^2/h
Lag time ([3]; GP skin, MN Treated, Low Dose): 15.67 ± 6.96 h
NTXOL Flux ([3]; GP skin, MN Treated, Low Dose): 15.19 ± 7.33 nmol/cm^2/h
Lag time ([3]; GP skin, No MN, High Dose): 24.34 ± 5.17 h
NTXOL Flux [3, 11]: 1.36 ± 0.91 nmol/cm^2/h
Lag time ([3]; GP skin, No MN, High Dose, listed as Naltrexol pH 8.5): 24.34 ± 5.17 h
Lag time ([3]; GP skin, No MN, Low Dose): 25.37 ± 1.10 h
NTXOL Flux ([3]; GP skin, No MN, Low Dose): 8.77 ± 4.08 nmol/cm^2/h

Oc1ccc2c3c1O[C@H]1[C@H](O)CC[C@@]4(O)[C@@H](C2)N(CC2CC2)CC[C@]314 [NTXOL Base, 6-β-Naltrexol]
AUC [6, 12]: 303.1 ng·h/mL
Cmax [6, 12]: 8.5 ng/mL
Css [6, 12]: 5.04 ± 2.57 ng/mL
Tlag [6, 12]: 0.7 h
Tmax [6, 12]: 0.7 h
AUC [6, 13]: 50.5 ± 10.1 ng·h/mL
Cmax [6, 13]: 1.7 ± 0.5 ng/mL
Css [6, 13]: 0.95 ± 0.41 ng/mL
Tlag [6, 13]: 5.2 ± 1.6 h
Tmax [6, 13]: 40.1 ± 11.7 h
first pKa [7]: 7.4

Cl.Oc1ccc2c3c1O[C@H]1[C@H](O)CC[C@@]4(O)[C@@H](C2)N(CC2CC2)CC[C@]314 [NTXOL HCl, Naltrexol Hydrochloride]
Plasma concentrations compared to no microneedles and Naltrexol base ([6]; MN and gel therapy, FIG. 8): markedly higher
AUC [6, 12]: 1349 ± 616 ng·h/mL
Cmax [6, 12]: 48.5 ± 18.8 ng/mL
Css [6, 12]: 21.3 ± 6.9 ng/mL
Tlag [6, 12]: 0.7 ± 0.3 h
Tmax [6, 12]: 19.2 ± 11.5 h
AUC [6, 13]: 24.4 ng·h/mL
Cmax [6, 13]: 4.1 ng/mL
Css [6, 13]: 1.8 ± 1.68 ng/mL
Tlag [6, 13]: 1 h
Tmax [6, 13]: 7.0 h
Flux ([3]; MN treated skin, earlier experiment): 36.12±1.77 nmol/cm^2/h
Flux ([3]; untreated skin, earlier experiment): 2.75±1.38 nmol/cm^2/h
